Results: patent publication US9051300B2, “Herbicides” (Syngenta Limited, priority 2009, dated 2015)

Experiments:
Format in all cases: in vivo
[1] = system: Alopecurus myosuroides (ALOMY); experiment: Post-emergence herbicidal activity, glasshouse pot test; settings: 312 h, evaluated after 13 days, 100=total damage to plant, 0=no damage
Experimental: (§1) Seeds of a variety of test species are sown in standard soil in pots. After cultivation for one day (pre-emergence) or after 8 days cultivation (post-emergence) under controlled conditions in a glasshouse (at 24/16° C., day/night; 14 hours light; 65% humidity), the plants are sprayed with an aqueous spray solution derived from the formulation of the technical active ingredient in acetone/water (50:50) solution containing 0.5% Tween 20 (polyoxyethylene sorbitan monolaurate, CAS RN 9005-64-5). The test plants are then grown in a glasshouse under controlled conditions in a glasshouse (at 24/16° C., day/night; 14 hours light; 65% humidity) and watered twice daily. After 13 days for pre and post-emergence, the test is evaluated (100=total damage to plant; 0=no damage to plant). Lolium perenne (LOLPE), Alopecurus myosuroides (ALOMY), Echinochloa crus-galli (ECHCG), Avena fatua (AVEFA) Post-Emergence Activity

Avena fatua (AVEFA) [2] = experiment: as above; settings: 312 h, evaluated after 13 days, 100=total damage to plant, 0=no damage
Experimental: as §1

[3] = system: Echinochloa crus-galli (ECHCG); experiment: as above; settings: 312 h, evaluated after 13 days, 100=total damage to plant, 0=no damage
Experimental: as §1

Lolium perenne (LOLPE) [4] = experiment: as above; settings: 312 h, evaluated after 13 days, 100=total damage to plant, 0=no damage
Experimental: as §1

[5] = system: Alopecurus myosuroides (ALOMY); experiment: Pre-emergence herbicidal activity, glasshouse pot test; settings: rate not printed (columns shifted), evaluated after 13 days, 100=total damage to plant, 0=no damage
Experimental: as §1, with “Pre-Emergence” for “Post-Emergence”

Avena fatua (AVEFA) [6] = experiment: as above; settings: rate not printed (columns shifted), evaluated after 13 days, 100=total damage to plant, 0=no damage
Experimental: as §1, with “Pre-Emergence” for “Post-Emergence”

[7] = system: Echinochloa crus-galli (ECHCG); experiment: as above; settings: rate not printed (columns shifted), evaluated after 13 days, 100=total damage to plant, 0=no damage
Experimental: as §1, with “Pre-Emergence” for “Post-Emergence”

Lolium perenne (LOLPE) [8] = experiment: as above; settings: rate not printed (columns shifted), evaluated after 13 days, 100=total damage to plant, 0=no damage
Experimental: as §1, with “Pre-Emergence” for “Post-Emergence”

[9] = system: Winter Wheat variety 'Hereward'; experiment: Crop damage to winter wheat, post-emergence spray; settings: 250 g/ha, no safener, evaluated after 13 days, 100=total damage to plant, 0=no damage
Experimental: Seeds of the Winter Wheat variety ‘Hereward’ were sown in standard soil in pots. After 8 days cultivation under controlled conditions in a glasshouse (at 24/16° C., day/night; 14 hours light; 65% humidity), the plants were sprayed post-emergence with an aqueous spray solution derived from the formulation of the technical active ingredient in acetone/water (50:50) solution containing 0.5% Tween 20 (polyoxyethylene sorbitan monolaurate, CAS RN 9005-64-5). The test plants were then grown in a glasshouse under controlled conditions in a glasshouse (at 24/16° C., day/night; 14 hours light; 65% humidity) and watered twice daily. After 13 days for pre and post-emergence, the test was evaluated (100=total damage to plant; 0=no damage to plant).

[10] = system: Winter Wheat variety 'Hereward'; experiment: Crop damage to winter wheat seed treated with safener cloquintocet mexyl, post-emergence spray; settings: 250 g/ha, seed treated with cloquintocet mexyl 0.5 g/kg seed, evaluated after 13 days, 100=total damage, 0=no damage
Experimental: Seeds of the Winter Wheat variety ‘Hereward’ were seed treated with a wettable powder formulation of the cereal herbicide safener, cloquintocet mexyl, at a rate of 0.5 grams per kilogram of dry seed prior to the initiation of glasshouse testing. One seed was sown per 1.5 inch plastic pot into a sandy loam soil at a depth of 1 cm, 8 days prior to application of the test compounds and was watered and grown under controlled conditions in a glasshouse (at 24/16° C., day/night; 14 hours light; 65% humidity). The plants were sprayed post-emergence with an aqueous spray solution derived from the formulation of the technical active ingredient in acetone/water (50:50) solution containing 0.5% Tween 20 (polyoxyethylene sorbitan monolaurate, CAS RN 9005-64-5). The test plants were then grown in a glasshouse under controlled conditions in a glasshouse (at 24/16° C., day/night; 14 hours light; 65% humidity) and watered twice daily. After 13 days for pre and post-emergence, the test was evaluated (100=total damage to plant; 0=no damage to plant).

Structure (SMILES)	pest or weed control at 250 g/ha [1] [%]	pest or weed control at 250 g/ha (Avena fatua (AVEFA) [2]) [%]	pest or weed control at 250 g/ha [3] [%]	pest or weed control at 250 g/ha (Lolium perenne (LOLPE) [4]) [%]	Pre-Emergence Activity ALOMY (damage to plant) [5]	Pre-Emergence Activity AVEFA (damage to plant) (Avena fatua (AVEFA) [6])	Pre-Emergence Activity ECHCG (damage to plant) [7]	Pre-Emergence Activity LOLPE (damage to plant) (Lolium perenne (LOLPE) [8])	Winter Wheat (Hereward) (damage to plant) [9]	Winter Wheat (Hereward) + cloquintocet mexyl (damage to plant) [10]
Cc1cc(-c2ccc(Cl)cc2)nn1C1C(=O)CC(Cc2ccc(F)cn2)C1=O (stereo not drawn) [Compound A20]	80	90	100	90	40	20	100	70	70	70
Cc1cc(-c2ccc(Cl)cc2)nn1C1C(=O)C/C(=C\c2ccc(F)cn2)C1=O (stereo not drawn) [Compound A21]	70	30	90	60	40	10	90	90	20	10
Cc1cc(-c2ccc(Cl)cc2)nn1C1C(=O)C/C(=C/c2ccc(F)cn2)C1=O (stereo not drawn) [Compound A22]	70	60	90	50	40	20	70	60	60	10
Cc1cc(-c2ccc(Cl)cc2)nn1C1C(=O)C/C(=C\C2CCOCC2)C1=O (stereo not drawn) [Compound A23]	90	100	100	100	90	90	100	100	80	60
Cc1sc(-c2ccc(Cl)cc2)nc1C1C(=O)C/C(=C\C2CCOCC2)C1=O (stereo not drawn) [Compound A24]	100	90	100	90	60	60	100	100	70	0
Cc1cc(-c2ccc(Cl)cc2)nn1C1C(=O)CC(CC2CCOCC2)C1=O (stereo not drawn) [Compound A25]	100	100	100	100	70	70	100	90	80	40
